Read-outs that look alike come from different tables or passages of the source.
Key:
[1] = tested on: C. albicans; assay: Checkerboard assay IL + Clotrimazole, growth on YPD plate post-treatment (fungicidal); type: cell-based; conditions: for average growth, visually scored (2 full, 1 interrupted, 0 no growth): [HMIM]Cl 0 mM
Protocol: C. albicans was grown overnight in YPD liquid media at 30 °C, at which point it was diluted into 10 mL of YPD media at 0.1 OD600 and was grown to mid-log phase 0.5 OD600 and subsequently diluted to 5 × 10^3 CFU/mL cells in YPD of which 180 μL of culture was distributed into a 96-well round-bottom culture dish. To this dish, 20 μL of IL, AF, or IL + AF was added to each well at concentrations indicated in each experiment. These culture plates were grown in an incubator shaker for 48 h at 30 °C, at which point the cultures were mixed by pipetting and then spotted onto YPD solid plates and allowed to grow for an additional 48 h. After 48 h, plates were visually scored for no growth (0), 50% growth (1), or 100% growth relative to PBS control (2). Experiments were performed in triplicate, and scores were averaged per well.
In order to evaluate if the same combinatorial effect was present in liquid culture and furthermore to identify the specific concentrations at which a combined effect may be present, checkerboard assays were performed. […] These assays were completed in triplicate for both [HMIM]Cl and [OMIM]Cl with the addition of Clotrimazole on C. albicans. In this assay, both IL and AF were loaded into a 96-well plate YPD liquid culture plate in double serial dilutions with decreasing IL from top to bottom and decreasing AF from left to right. Each well represents a different final concentration of both drugs in combination. Growth of the target microorganism was measured as growth in liquid media by OD600 nm, representing fungistatic interactions and [2] growth on a YPD plate post-treatment as fungicidal (Figure 4).
Checkerboard assays were performed in 96-well plates with Clotrimazole + [HMIM]Cl or [OMIM]Cl on C. albicans. These culture plates were grown in an incubator shaker for 48 h at 23 °C, and thereafter C. albicans was mixed by pipetting and then spotted onto YPD solid plates and allowed to grow for an additional 48 h. After 48 h, plates were visually scored for no growth (0), 50% growth (1), or 100% growth relative to PBS control (2). Experiments were performed in triplicate, and scores were averaged per well. […] We measured this by calculating the fractional inhibitory concentration (FIC) score ((MIC50 IL + AF)/(MIC50 AF)) + ((MIC50 IL + AF)/(MIC50 IL)). In this well-established measure of combined interactions, a score < 0.5 indicated synergistic interaction, 0.5–4 potential combinatorial interaction or no effect, and >4 antagonistic interaction.

[2] = tested on: S. cerevisiae; assay: MIC50 by microbroth dilution; type: cell-based; conditions: Saccharomyces cerevisiae
Protocol: (§1) A single colony was picked from each streak to prepare overnight in 5 mL fresh YPD broth and placed into a tilted rotating incubator set at 30 °C and 40 rpm overnight. After ~16–20 h, a fresh dilution in media (1:200) was made and used for the experiment. […] Finally, diluted culture was added to each well of a sterile 96-well plate containing serially diluted aliquots of each RTIL to a total volume of 100 µL. The plate was incubated at 30 °C overnight with shaking for 24 and 48 h. At both timepoints, the yeast was manually resuspended in the plate by pipetting and we measured the OD600 using a Spectramax M5 multimode plate reader (Molecular Devices, San Jose, CA, USA).
(§2) The four species of yeast tested included three common lab strains of non-pathogenic yeast strains, S. boulardii, S. cerevisiae, and S. pombe, and one common human pathogen, C. albicans.

[3] = tested on: C. albicans; assay: MIC50 by microbroth dilution; type: cell-based; conditions: Candida albicans, 48 h
Protocol: as §1, §2

[4] = tested on: S. pombe; assay: MIC50 by microbroth dilution; type: cell-based; conditions: Schizosaccharomyces pombe
Protocol: as §1, §2

[5] = tested on: S. boulardii; assay: MIC50 by microbroth dilution; type: cell-based; conditions: Saccharomyces cerevisiae
Protocol: as §1, §2

[6] = tested on: HeLa cells; assay: CellTiter-Blue cytotoxicity assay; type: cell-based, human; conditions: for EC50: Homo sapiens, HeLa, read-out: EC50 (50% viability)
Protocol: EC50 and FIC calculations were performed using these treatments.
To understand the degree to which imidazolium chloride-based ILs of varying chain length are toxic to human cells, we treated HeLa cells with [HMIM]Cl or [OMIM]Cl with each of the four azole AFs for 24 h and evaluated cytotoxicity. Following 24 h of exposure in liquid culture at defined serial dilutions in a 96-well plate format, cells were evaluated for viability using CellTiter-Blue assay in which living cells can metabolize resazurin into resorufin, a fluorescent reporter molecule detected by plate spectroscopy. Consistent with findings for bacteria and yeast microorganisms, high concentrations of imidazolium chloride-based ILs are toxic to HeLa cells (Figure 6B). Moreover, HeLa cells treated with ILs with longer alkyl chain lengths [OMIM]Cl are less viable than when treated with [HMIM]Cl at the same final concentration. […] With respect to all four AFs, the degree of specificity for these drugs to fungi vs. human cells was clear (Figure 6B).

[7] = 50% growth after 48 h in YPD media, OD600, read-out: MIC50
[8] = in combination with Clotrimazole 4 mg/L

Clc1ccccc1C(c1ccccc1)(c1ccccc1)n1ccnc1 [Clotrimazole]
average growth, visually scored (2 full, 1 interrupted, 0 no growth) ([1]; Clotrimazole 0.1 mg/L): 2 | average growth, visually scored (2 full, 1 interrupted, 0 no growth) ([1]; Clotrimazole 0.25 mg/L): 2 | average growth, visually scored (2 full, 1 interrupted, 0 no growth) ([1]; Clotrimazole 0.5 mg/L): 2 | average growth, visually scored (2 full, 1 interrupted, 0 no growth) ([1]; Clotrimazole 1 mg/L): 2 | average growth, visually scored (2 full, 1 interrupted, 0 no growth) ([1]; Clotrimazole 2 mg/L): 1.67 | average growth, visually scored (2 full, 1 interrupted, 0 no growth) ([1]; Clotrimazole 4 mg/L): 1.33 | average growth, visually scored (2 full, 1 interrupted, 0 no growth) ([1]; Clotrimazole 8 mg/L): 1 | average growth, visually scored (2 full, 1 interrupted, 0 no growth) ([1]; Clotrimazole 15 mg/L): 1 | average growth, visually scored (2 full, 1 interrupted, 0 no growth) ([1]; Clotrimazole 31 mg/L): 1 | average growth, visually scored (2 full, 1 interrupted, 0 no growth) ([1]; Clotrimazole 62 mg/L): 0.67 | average growth, visually scored (2 full, 1 interrupted, 0 no growth) ([1]; Clotrimazole 125 mg/L): 0.67 | average growth, visually scored (2 full, 1 interrupted, 0 no growth) ([1]; Clotrimazole 250 mg/L): 0.33 | Clotrimazole concentration at 50% growth ([1]; with 0.39 mM [OMIM]Cl): 4 mg/L | Clotrimazole concentration at 50% growth ([1]; with 1.562 mM [HMIM]Cl): 4 mg/L | MIC50 [2, 7]: 1 mg/L | MIC50 [3, 7]: 1 mg/L | MIC50 [4, 7]: 1 mg/L | MIC50 [5, 7]: 1 mg/L

CCCCCCn1cc[n+](C)c1.[Cl-] [[HMIM]Cl, 1-hexyl-3-methylimidazolium chloride]
IL concentration at 50% growth (MIC50 used for FIC) ([1]; IL alone, fungicidal checkerboard): 6.25 mM | antifungal effect of IL without Clotrimazole ([1]; [HMIM]Cl 12.5 mM): not completely fungicidal | IL concentration at 50% growth (MIC50 used for FIC) [1, 8]: 1.562 mM | MIC50 ([2]; 48 h): 6.25 mM | MIC50 [3]: 25 mM | MIC50 ([4]; 48 h): 6.25 mM | MIC50 ([5]; 48 h): 6.25 mM | toxicity on HeLa cells ([6]; 1.563 mM [HMIM]Cl): low levels of toxicity | EC50 ([6]; 24 h): 14.1 mM

CCCCCCCCn1cc[n+](C)c1.[Cl-] [[OMIM]Cl, 1-octyl-3-methylimidazolium chloride]
antifungal effect of IL without Clotrimazole ([1]; [OMIM]Cl 6.25 mM): not completely fungicidal | IL concentration at 50% growth (MIC50 used for FIC) [1, 8]: 0.39 mM | MIC50 [2, 7]: 0.625 mM | MIC50 [3, 7]: 3.12 mM | MIC50 [4, 7]: 1.25 mM | MIC50 [5, 7]: 0.625 mM | EC50 ([6]; 24 h exposure): 1.11 mM

Source: PMC12730265, “Combinatorial Antimicrobial Effects of Imidazolium-Based Ionic Liquids and Antifungals on Model Fungal Organisms” (Biomolecules, 2025)
